Read-outs that look alike come from different tables or passages of the source.
Assays:
human GIPR [1] = molecular target: T1, human GIPR (Homo sapiens, UniProt P48546); assay: In vitro receptor activation reporter assay (CRE-Luc, HEK293-GIPR-CRE cells; receptor-mediated cAMP synthesis); assay type: cell-based
T1 construct: expressed in transfected cells; host or cells: HEK293 (CRE-HEK293, HEK293-GIPR-CRE)
T1 sequence (P48546 22-466): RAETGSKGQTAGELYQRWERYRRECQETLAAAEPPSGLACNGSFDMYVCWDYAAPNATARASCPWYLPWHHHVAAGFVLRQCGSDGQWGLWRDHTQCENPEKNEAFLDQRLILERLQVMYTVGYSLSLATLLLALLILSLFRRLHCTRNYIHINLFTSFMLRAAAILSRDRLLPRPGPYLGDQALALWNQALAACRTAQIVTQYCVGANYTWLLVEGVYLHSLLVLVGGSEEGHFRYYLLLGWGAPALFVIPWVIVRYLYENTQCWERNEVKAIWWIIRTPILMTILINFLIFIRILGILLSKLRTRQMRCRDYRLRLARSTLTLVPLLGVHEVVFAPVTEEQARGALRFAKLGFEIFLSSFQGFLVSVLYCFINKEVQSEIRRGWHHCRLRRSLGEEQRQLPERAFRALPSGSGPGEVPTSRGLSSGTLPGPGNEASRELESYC
Protocol: (§2) HEK293 cells were infected with lentivirus encoding firefly luciferase gene under the control of cAMP responsive element (CRE) promoter (Qiagen, The Netherlands) and then were selected using 1 μg mL^−1 puromycin (Life Technologies, Carlsbad) for 1 week. The surviving cells (referred to as CRE-HEK293) were expanded and then transfected with a G418 selective mammalian expression plasmid encoding human GLP-1R or GIPR. In brief, GLP-1R or GIPR plasmid was transfected into CRE-HEK293 cells using Lipofectamine 2000 and selected with 400 μg mL^−1 Geneticin (Life Technologies, Carlsbad, CA). Single colony stable cell line overexpressing CRE-luciferase and GLP-1R or GIPR (HEK293-GLP-1R-CRE or HEK293-GIPR-CRE) was then established for in vitro activity assay.

[2] = Acute oral glucose tolerance test (OGTT) in wild-type mice, 2 h and 96 h post injection; assay type: in vivo, mouse; conditions: 96 h after administration; 10 nmol/kg s.c.
in vitro [3] = assay type: in vitro ADME; conditions: plasma
Protocol: (§1) To investigate the stability of the conjugates in mouse, cyno monkey, dog, and human plasma, conjugate mCMD307 was incubated in plasma for 24 h (Table 13). At certain time intervals a sample of plasma was taken and plasma proteins precipitated. Samples were analyzed using LC-MS.

[4] = assay type: in vivo, mouse
Protocol: […]. Peptide dissolved in PBS (pH 8.2) was administered via i.v. or s.c. route into CD1 mice ([…]). Blood samples were collected at the indicated time points and analyzed by in vitro GLP-1R activity assay. The assay was performed in triplicate. Pharmacokinetic analyses were determined by noncompartmental analysis with WinNonLin.
[…]. It is also noteworthy that although our focus for half-life extension was on the serum-binding ability of the stapled peptide, there may be a combination of effects, for example self-assembly and depoting at the injection site, that led to the delayed onset of Cmax and the extended half-life.
CHOK1 cells stably overexpressed human GLP-1R or GIPR (20 μL of 5000 cells per well) were seeded in a white solid 384 well plate covered with metal lid and incubated overnight. On day 2, the culture medium was replaced by fresh medium containing no FBS (for 0% FBS group). Cells were treated with 5 μL peptide in 12-point dose response, in culture medium with 0.5 mM IBMX in triplicate for 30 min at 37° C., 5% CO2. cAMP dynamic 2 kit from Cisbio was used to detect cAMP level. Briefly, 25 μL of cAMP detection reagent (1:1:38 of cAMP-d2, Cryptate conjugate, lysis buffer) per well was added and incubated at room temperature for 1 h. For cell negative control wells, cAMP detection reagent without d2 was added. […] Animals Animal care and experimental procedures were approved by the Institutional Animal Care and Use Committee (IACUC) of Calibr at the Scripps Research Institute, strictly following the NIH guidelines for humane treatment of animals. Pharmacokinetics of peptides in mice Female CD-1 mice (n=4 per group) from Charles River Laboratory were fasted overnight and administered 100 μL of each peptide in phosphate buffered saline by intravenous (i.v.) or subcutaneous (s.c.) route. Food was provided to mice after blood collection at 3 h time point. Blood was collected into heparin tubes and centrifuged at 3,000×g for 15 min. The resulting plasma were then stored at −80° C. for peptide concentration determination. The concentrations of peptides in plasma at each time point were determined by in vitro cell based activity assay. Briefly, HEK293-GLP-1R-CRE cells were treated with plasma samples at different time points (5-point dose response, starting from 1:10 to 1:100 dilution of each plasma sample) and incubated for 16 h in DMEM with 10% FBS at 37° C. with 5% CO2, and the firefly luciferase activity was then measured. Simultaneously, the same peptides were used to obtain standard curves and parameters for Bottom, Top, EC50, and Hill Slope. Relative luciferase unit (RLU) for each plasma sample was used to calculate the peptide concentrations in plasma (nmol/L), using parameters derived from the standard curve: (RLU=Bottom+(Top−Bottom)/(1+10^(Log EC50−Conc.)×Hill Slope)) Peptide concentrations in plasma were obtained and plotted against time points to obtain in vivo half-life of each peptide, using WinNonLin Phoenix software (Pharsight Corp, St. Louis, MO). Oral glucose tolerance test (OGTT) Female Charles River CD-1 mice were fasted overnight and then administrated 150 μL of each peptide in PBS (pH=8.2) by i.v. or s.c. route. […]. Body weight and food intake were monitored daily throughout the study. At the end of the experiment, mice were sacrificed, and visceral fat mass was weighed. Collected plasma was used for cholesterol level determination according to the manufacturer's guide (cholesterol assay kit, Abcam, Cambridge, England) and triglyceride level using a triglyceride colorimetric assay kit (Cayman chemical, Ann Arbor, Michigan). Oil red staining Frozen tissue sections of liver were cut at 10 μm and air dried onto the slides. After fixation in 10% formalin for 5 min, the slides were briefly washed with running tap water for 10 min, followed by rinsing with 60% isopropanol. Subsequently, oil red 0 working solution (0.3% oil red 0) was used to stain lipid for 15 min. […]

in vitro [5] = assay type: in vitro ADME, cyno monkey; conditions: monkey, plasma
Protocol: as §1

[6] = High-fat-diet-induced obesity (DIO) mouse model, chronic administration; assay type: in vivo; conditions: DIO mice
[7] = Plasma stability, 24 h incubation in mouse plasma (LC-MS); assay type: in vitro ADME
Protocol: as §1

human GLP-1R [8] = molecular target: T2, human GLP-1R (Homo sapiens, UniProt P43220); assay: In vitro receptor activation reporter assay (CRE-Luc, HEK293-GLP-1R-CRE cells; receptor-mediated cAMP synthesis); assay type: cell-based; set-up: expressed in transfected cells; host or cells: HEK293 (CRE-HEK293, HEK293-GLP-1R-CRE); conditions: read-out: EC50 GLP1R
Protocol: as §2
HEK293 cells were infected with lentivirus encoding firefly luciferase gene under the control of cAMP responsive element (CRE) promoter (Qiagen, The Netherlands) and then were selected using 1 μg/mL puromycin (Life Technologies, Carlsbad) for 1 week. The surviving cells (referred to as CRE-HEK293) were expanded and then transfected with a G418 selective mammalian expression plasmid encoding human GLP-1R. In brief, GLP-1R plasmid was transfected into CRE-HEK293 cells using Lipofectamine 2000 and selected with 400 μg/mL Geneticin (Life Technologies, Carlsbad, CA). Single colony stable cell line overexpressing CRE-luciferase and GLP1R was then established for in vitro activity assay.

cynomolgous monkey GIPR = assay: In vitro potency, cynomolgous monkey GIPR activation (receptor-mediated cAMP synthesis); assay type: cell-based; conditions: Table 12; read-out: In Vitro Potency GIPR EC50, Cyno
dog GIPR = molecular target: T3, dog GIPR (Canis lupus familiaris, UniProt A0A8I3MPG1); assay: In vitro potency, dog GIPR activation (receptor-mediated cAMP synthesis); assay type: cell-based
T3 sequence (A0A8I3MPG1 24-449): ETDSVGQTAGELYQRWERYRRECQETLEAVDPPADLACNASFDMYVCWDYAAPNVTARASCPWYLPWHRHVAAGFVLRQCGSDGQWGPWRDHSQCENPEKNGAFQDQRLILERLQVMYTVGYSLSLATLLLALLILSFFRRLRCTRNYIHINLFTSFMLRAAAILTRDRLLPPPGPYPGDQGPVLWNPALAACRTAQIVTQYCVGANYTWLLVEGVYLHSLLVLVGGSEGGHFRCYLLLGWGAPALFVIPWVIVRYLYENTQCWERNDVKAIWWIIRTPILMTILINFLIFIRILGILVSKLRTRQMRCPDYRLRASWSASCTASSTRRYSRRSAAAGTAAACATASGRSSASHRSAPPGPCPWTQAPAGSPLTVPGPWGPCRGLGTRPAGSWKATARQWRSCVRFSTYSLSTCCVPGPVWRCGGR
Protocol: GLP-1R-CRE or HEK293-GIPR-CRE cells were seeded in 384-well plates at a density of 5000 cells per well and cultured for 18 h in DMEM with 10% FBS at 37° C. and 5% CO2. Cells were treated with peptides in a dose dependent manner for 24 h, and receptor activation was reported by luminescence intensities, using One-Glo (Promega, WI) luciferase reagent following manufacturer's instruction. The EC50 of each peptide was determined using GraphPad Prism 6 software (GraphPad, San Diego, CA). Results are depicted in FIGS. 6A-6B, FIGS. 7A-7B, FIGS. 8A-8B, FIGS. 9A-9B, and Tables 7-12. Measurements of peptide conjugate potency were expressed as half maximal effective concentration (EC50) values.

[9] = In vivo oral glucose tolerance test (OGTT) 12 h after a single S.C. dose; set-up: species or system mouse; conditions: 10 nmol/kg S.C.; 12 h before glucose
Protocol: Mice were fasted overnight prior to the oral glucose tolerance test (OGTT), and then dosed with peptide. After 12 h, 1 g of glucose solution per kg body weight was administered orally, and mouse tail blood glucose levels were measured before (0 min) and after glucose challenge for 90 minutes (with measurements at 15, 30, 60 and 90 minutes) (FIG. 16). The data were compared using the unpaired Student's t test. Where appropriate, data were compared using repeated measures or one-way analysis of variance, followed by the Student-Newman-Keuls post hoc test. Calculations for […] (mg/dL*min) were also analyzed and graphed in FIG. 16. […]. […].

human GIPR [10] = molecular target: T1, human GIPR; conditions: literature, in words; cited from earlier work
human GLP-1R [11] = molecular target: T2, human GLP-1R; conditions: literature, in words; cited from earlier work

T2 sequence (P43220 24-463): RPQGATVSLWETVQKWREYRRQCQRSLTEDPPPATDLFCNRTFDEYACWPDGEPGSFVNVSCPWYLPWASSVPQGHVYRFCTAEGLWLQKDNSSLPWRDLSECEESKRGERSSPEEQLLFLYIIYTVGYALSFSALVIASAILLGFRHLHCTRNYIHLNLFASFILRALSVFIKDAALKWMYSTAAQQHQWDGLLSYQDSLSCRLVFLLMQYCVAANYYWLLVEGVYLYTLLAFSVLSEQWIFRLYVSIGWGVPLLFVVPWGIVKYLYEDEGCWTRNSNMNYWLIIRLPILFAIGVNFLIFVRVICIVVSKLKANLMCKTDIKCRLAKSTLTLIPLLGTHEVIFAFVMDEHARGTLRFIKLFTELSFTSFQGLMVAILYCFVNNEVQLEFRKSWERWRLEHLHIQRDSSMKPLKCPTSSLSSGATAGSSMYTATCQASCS

## CC[C@H](C)[C@H](NC(=O)[C@H](CO)NC(=O)[C@H](Cc1ccc(O)cc1)NC(=O)[C@H](CC(=O)O)NC(=O)[C@H](CO)NC(=O)[C@@H](NC(=O)[C@H](Cc1ccccc1)NC(=O)[C@@H](NC(=O)CNC(=O)[C@H](CCC(=O)O)NC(=O)C(C)(C)NC(=O)[C@@H](N)Cc1ccc(O)cc1)[C@@H](C)O)[C@@H](C)O)C(=O)N[C@@H](Cc1ccc(O)cc1)C(=O)N[C@H]1CCCCNC(=O)CN(C(=O)CCNC(=O)CCOCCOCCOCCNC(=O)CCCCCCCCCCCCCCCCC(=O)O)CC(=O)NCCCC[C@@H](C(=O)N[C@@H](Cc2ccccc2)C(=O)N[C@H](C(=O)N[C@@H](CC(N)=O)C(=O)N[C@@H](Cc2c[nH]c3ccccc23)C(=O)N[C@@H](CC(C)C)C(=O)N[C@@H](CC(C)C)C(=O)N[C@@H](C)C(=O)NCC(=O)NCC(=O)N2CCC[C@H]2C(=O)N[C@@H](CO)C(=O)N[C@@H](CO)C(=O)NCC(=O)N[C@@H](C)C(=O)N2CCC[C@H]2C(=O)N2CCC[C@H]2C(=O)N2CCC[C@H]2C(=O)N[C@@H](CO)C(N)=O)C(C)C)NC(=O)C(C)(C)NC(=O)[C@H](C)NC(=O)[C@H](C)NC(=O)[C@H](CCC(N)=O)NC(=O)[C@H](CCCCN)NC(=O)[C@H](CC(=O)O)NC1=O [mCMD307, YAibEGT-FTSDY-SIYXD-KQAAAib-XFVNW-LLAGG-PSSGA-PPPS-NH2 (where each X is K) (SEQ ID NO: 39)]
Human GIPR [1]; Table 8, read-out: EC50 GIPR
  EC50: 0.01 nM
Human GIPR [1]; unnumbered table, run 02/19, read-out: EC50 GIPR 02/19
  EC50: 0.04 nM
[2]
  fasted glucose levels: significantly reduce fasted glucose levels
  glucose handling (OGTT) versus vehicle: more significant improvements in handling glucose
In vitro [3]; dog
  remaining at 24 h: 92%
In vitro [3]; human
  remaining at 24 h: 92%
[4]; Table 6, plasma, route not given
  AUC0-last: 59200 ± 6810 ng·h/mL
[4]; Table 6, plasma, route not stated in table (s.c. 1 mg kg-1 / i.v. 0.3 mg kg-1 per FIG. 3)
  Tmax: 2.33 ± 1.16 h
[4]; mouse, in vivo
  Cmax: 4710 ± 659 ng/mL
  Vd: 0.18 ± 0.05 L/kg
  clearance: 0.28 ± 0.04 mL/min/kg
  half-life: 11.6 ± 0.85 h
In vitro [5]
  remaining at 24 h: 87%
[6]; 40 μg/kg, FIG. 5A
  body weight, food intake: significantly reduced body weight food intake
[6]; day 21, versus PBS, FIG. 5B
  fed blood glucose: significantly lower than compared to PBS-treated DIO mice
[6]; s.c., FIG. 5A
  body weight: steady reduction in body weight
  fasting blood glucose levels: steady reduction
[7]
  remaining at 24 h: 53%
Human GLP-1R [8]; Table 7
  EC50: 0.01 nM
Human GLP-1R [8]; Table 8
  EC50: 0.03 nM

## CC[C@H](C)[C@H](NC(=O)[C@H](CO)NC(=O)[C@H](Cc1ccc(O)cc1)NC(=O)[C@H](CC(=O)O)NC(=O)[C@H](CO)NC(=O)[C@@H](NC(=O)[C@H](Cc1ccccc1)NC(=O)[C@@H](NC(=O)CNC(=O)[C@H](CCC(=O)O)NC(=O)[C@H](C)NC(=O)[C@@H](N)Cc1ccc(O)cc1)[C@@H](C)O)[C@@H](C)CC)C(=O)N[C@@H](C)C(=O)N[C@@H](CCSC)C(=O)N[C@@H](CC(=O)O)C(=O)N[C@@H](CCCCN)C(=O)N[C@H](C(=O)N[C@@H](Cc1c[nH]cn1)C(=O)N[C@@H](CCC(N)=O)C(=O)N[C@@H](CCC(N)=O)C(=O)N[C@@H](CC(=O)O)C(=O)N[C@@H](Cc1ccccc1)C(=O)N[C@H](C(=O)N[C@@H](CC(N)=O)C(=O)N[C@@H](Cc1c[nH]c2ccccc12)C(=O)N[C@@H](CC(C)C)C(=O)N[C@@H](CC(C)C)C(=O)N[C@@H](C)C(=O)N[C@@H](CCC(N)=O)C(=O)N[C@@H](CCCCN)C(=O)NCC(=O)N[C@@H](CCCCN)C(=O)N[C@@H](CCCCN)C(=O)N[C@@H](CC(N)=O)C(=O)N[C@@H](CC(=O)O)C(=O)N[C@@H](Cc1c[nH]c2ccccc12)C(=O)N[C@@H](CCCCN)C(=O)N[C@@H](Cc1c[nH]cn1)C(=O)N[C@@H](CC(N)=O)C(=O)N[C@H](C(=O)N[C@H](C(=O)N[C@@H](CCC(N)=O)C(=O)O)[C@@H](C)O)[C@@H](C)CC)C(C)C)[C@@H](C)CC [hGIP, reference compound]
Cynomolgous monkey GIPR
  EC50: 0.69 nM
Dog GIPR
  EC50: 0.7 nM

## Tirzepatide
[9]
  effects on glucose tolerance: indistinguishable effects on glucose tolerance
Human GIPR [10]
  binding affinity to human GIPR versus hGIP: comparable affinity than that of hGIP
Cynomolgous monkey GIPR
  EC50: 0.08 nM
Human GLP-1R [11]
  GLP-1 receptor binding versus native hGLP-1: approximately five times lower GLP-1 receptor binding than native hGLP-1

From patent US12329823B2 (The Scripps Research Institute, priority 2021, dated 2025)
